These results are taken from patent US20080161348A1, “PTX3-GENE EXPRESSION INHIBITOR” (KOWA CO., LTD., priority 2002, published 2008).

Experiment [1] deals with PTX3 gene. As to conditions: constant expression in synovial cells; Clin. Exp. Immunol., 119(1), 196-202 (2000); cited from earlier work.
Experiment [2] deals with PTX3 gene. Nature of the experiment: PTX3 gene expression analysis by GeneChip array in HUVEC. The experiment is classed as cell-based, human. The settings on record: 8 hours after addition, control 1113.0. As to the method: (§1) Two days after inoculation of normal human umbilical vein endothelial cells (HUVEC) or human coronary artery smooth muscle cells (HCASMC) at 3×10^5 cells/10 cm dish, pitavastatin calcium or atorvastatin calcium was added to 1.1 μmol/L and 6.6 μmol/L, respectively. Dimethyl sulfoxide, a solvent for both of the active ingredients, was added to a control (final concentration: 0.0066 v/v %). Eight hours after the addition, total RNA was extracted with “ISOGEN” (trade mark, product of NIPPON GENE CO., LTD.). The following procedures was conducted in accordance with the procedures manual of Affymetrix. Inc. Described specifically, mRNA was isolated from the above-obtained total RNA, and based on the mRNA, cDNA was synthesized. Further, biotin-labeled cRNA was synthesized by in vitro transcription. Subsequent to purification, the biotin-labeled cRNA was subjected to fragmentation by heat treatment to prepare fragmented cRNA for use in a gene expression analysis.
(§2) Gene expression analysis method: The fragmented CRNA was poured into “Hugene Human FL Array” (trade name, product of Affymetrix, Inc.), and hybridization was conducted at 45° C. for 16 hours. […] The information was analyzed by “GENECHIP SOFTWARE” (trade name, product of Affymetrix, Inc.) to compare expression levels.

The subject of experiment [3] is PTX3 gene. Nature of the experiment: PTX3 gene expression by RT-PCR and agarose gel electrophoresis in HUVEC. The experiment is classed as cell-based, human. As to conditions: both 8 hours later and 24 hours later. As to the method: (§3) Two days after inoculation of HUVEC at 3×10^5 cells/10 cm dish, pitavastatin calcium or atorvastatin calcium was added to 1.1 μmol/L and 6.6 μmol/L, respectively. To ascertain possible concentration dependency of PTX3 gene expression suppressing effect of pitavastatin, pitavastatin calcium was also added to 1 μmol/L and 10 μmol/L upon elapsed time of 2 days after inoculation of HUCEC or HCASMC at 3×10^5 cells/10 cm dish. To controls under the respective conditions, dimethyl sulfoxide, a solvent for both of the active ingredients, was added (final concentration: 0.0066 v/v %) Eight or 24 hours after the addition, total RNA was extracted with “ISOGEN” (trade mark, product of NIPPON GENE CO., LTD.). The total RNA was subjected to RT-PCR in a manner known per se in the art, and amplified DNA fragments were subjected to agarose gel electrophoresis to compare expression levels. • Reaction conditions and the like for PT-PCR:
(§4) PT reaction: Conducted using “RNA PCR Core Kit” (trade name, product of Roche Molecular Systems, Inc.).
PCR: Using “Expanded™ High Fidelity PCR System” (trade name, manufactured of Boehringer Mannheim AG), thermal cycling was conducted through 25 cycles according to the following schemes: 95° C. for 1 minute—57° C. for 1 minute—72° C. for 1 minute. Incidentally, as PCR primers, the followings were used in sets: SEQ ID No:1 (Forward) and SEQ ID No: 2 (Reverse) in the case of PTX3; base SEQ ID No:3 (Forward) and SEQ ID No: 4 (Reverse) in the case of GAPDH.

Experiment [4] has as its system PTX3 gene. Nature of the experiment: PTX3 gene expression analysis by GeneChip array in HCASMC. The experiment is classed as cell-based, human. As to conditions: 8 hours after addition, control 1028.3. As to the method: as §1, §2
The test system of experiment [5] is PTX3 gene. Nature of the experiment: PTX3 gene expression by RT-PCR and agarose gel electrophoresis in HCASMC. The settings on record: 1 μmol/L and 10 μmol/L, both 8 hours later and 24 hours later. The experiment is classed as cell-based, human. As to the method:
as §3, §4
PCR: Using “Expanded™ High Fidelity PCR System” (trade name, manufactured of Boehringer Mannheim AG), thermal cycling was conducted through 25 cycles according to the following schemes: 95° C. for 1 minute—57° C. for 1 minute—72° C. for 1 minute. […]

As to TGF-β, the “expression of PTX3 gene in synovial cells of a rheumatoid arthritis patient” value with PTX3 gene [1] is on record as “suppressed”.

In the case of `CC(C)c1c(C(=O)Nc2ccccc2)c(-c2ccccc2)c(-c2ccc(F)cc2)n1CC[C@@H](O)C[C@@H](O)CC(=O)O` [atorvastatin calcium, (3R,5R)-7-[2-(4-fluorophenyl)-5-isopropyl-3-phenyl-4-phenylcarbamonyl-1H-pyrrol-1-yl]-3,5-dihydroxyheptanoic acid], in the experiment with PTX3 gene [2] (6.6 μmol/L), the “expression of PTX3 gene in HUVEC” value was determined as 39.2. In the experiment with PTX3 gene [3] (6.6 μmol/L), the “expression of PTX3 gene in HUVEC compared with the control (RT-PCR)” value is recorded as “suppressed”. In addition, the “expression of PTX3 gene in HCASMC” value with PTX3 gene [4] (6.6 μmol/L) is 432.1.

In the case of `O=C(O)C[C@H](O)C[C@H](O)/C=C/c1c(C2CC2)nc2ccccc2c1-c1ccc(F)cc1` [pitavastatin calcium, (3R,5S, 6 E)-7-[2-cyclopropyl-4-(4-fluorophenyl)-3-quinolyl]-3,5-dihydroxy-6-heptenoic acid], in the experiment on PTX3 gene [2] (1.1 μmol/L), the “expression of PTX3 gene in HUVEC” value worked out at 32.7. For the same compound, the “concentration dependency of PTX3 gene expression suppression in HCASMC (RT-PCR)” value in the experiment with PTX3 gene [5] is listed as “concentration-dependently suppressed”. Moreover, the “concentration dependency of PTX3 gene expression suppression in HUVEC (RT-PCR)” value in the experiment on PTX3 gene [3] (1 μmol/L and 10 μmol/L) is recorded as “concentration-dependently suppressed”. Further, the “expression of PTX3 gene in HUVEC compared with the control (RT-PCR)” value in the experiment with PTX3 gene [3] (1.1 μmol/L) was “suppressed”. Further, the “expression of PTX3 gene in HCASMC” value with PTX3 gene [4] (1.1 μmol/L) is 452.5.

Consider “IFN-γ: inteferon-γ (IFN-γ), known from literature to suppress PTX3 gene expression”, for which the “expression of PTX3 gene in synovial cells of a rheumatoid arthritis patient” value with PTX3 gene [1] is given as “suppressed”.
